Laboratory results as given in patent publication US11903912B2, “Composition for preventing and treating breast cancer including selenopsammaplin A as active ingredients” (Seoul National University R & DB Foundation, priority 2019, dated 2024).

Legend:
Format in all cases: cell-based
[1] = test system: A549 human lung cancer cells; assay: SRB cytotoxicity test, A549; settings: SRB assay, cultured 3 days
Description: (§1) A cytotoxicity test was performed using synthesized selenopsammaplin A and derivatives thereof (Lee S K et al […] Chem Biol Interact 115:215-28).
(§2) The cytotoxicity test was performed on a total of five representative cancer cell lines. The cytotoxicity of each compound was measured using an SRB assay method (human lung cancer cells, A549; human colon cancer cells, HCT116; human breast cancer cells, MDA-MB231; human liver cancer cells, SK-HEP-1; human gastric cancer cells, SNU638).
(§3) Each cell line was sub-cultured once or twice using Roswell Park Memorial Institute (RPMI) medium 1640 (RPMI 1640) or Dulbecco's Modified Eagle's Medium (DMEM) containing 10% fetal bovine serum (FBS) inactivated by heat, 100 units/mL of penicillin, 100 μg/mL of streptomycin, and 250 ng/mL of amphotericin B at 37° C. for 1 week under a 5% CO2 condition. All cells were […] in liquid nitrogen, and then passaged three or more times to be used in the experiment. The effects of compounds on cell growth were measured using a sulforhodamine B (SRB) method (Lee et al (1998) Chemico-Biol Interact 115:215-228).
(§4) Specifically, each human cancer cell line used in the present invention was sub-cultured in an RPMI medium containing 10% FBS, 1% PSF, and the like, and 10 μl of a sample dissolved in 10% DMSO and 190 μl (4-5×10^4 cells/ml) of the cell suspension were added to each well of a 96-well plate and cultured for 3 days. 190 μl of the cell suspension was added to at least 16 wells and cultured for 30 minutes, and used as a zero-day control. The cultured cells were fixed with 10% trichloroacetic acid (TCA) and then stained with an SRB solution, and the staining solution was dissolved with 10 mM Tris-base, and then absorbance at 515 nm was measured. Using the case of culturing in 10% DMSO as a control, cell viability according to each test material treatment was measured using Equation 1 below. Etoposide was used as a positive control. % Viability=(OD(sample)−OD(0-day))/(OD(10% DMSO)−OD(0-day))×100 [Equation 1]
(§5) Assuming that a control not-treated with the sample was set at 100%, the values of sample-treated groups were expressed as percentage with respect to the control, and each test material treatment results were obtained as the mean±SEM of two or three tests. The IC50 value is the concentration of the test material for a 50% survival rate.

[2] = test system: MDA-MB231 human breast cancer cells; assay: SRB cytotoxicity test, MDA-MB231; settings: SRB assay, cultured 3 days
Description: as §1, §2, §3, §4, §5

[3] = test system: SK-HEP-1 human liver cancer cells; assay: SRB cytotoxicity test, SK-HEP-1; settings: SRB assay, cultured 3 days
Description: as §1, §2, §3, §4, §5

[4] = test system: SNU638 human gastric cancer cells; assay: SRB cytotoxicity test, SNU638; settings: SRB assay, cultured 3 days
Description: as §1, §2, §3, §4, §5

DOT1L = target: T1, DOT1L (Homo sapiens, UniProt Q8TEK3); assay: Inhibition of DOT1L methylation (H3K79) by western blotting; settings: breast cancer cell line, FIG. 3
T1 construct: based on the finding that DOT1L was overexpressed in the breast cancer cell line; endogenous in cells
Text: As confirmed in Example 1, based on the finding that DOT1L was overexpressed in the breast cancer cell line, the effects of the derivatives of the present invention on the methylation of the histone 3 lysine 79 (H3K79) residue, which is an in-vivo target of DOT1L, were examined by western blotting.

[5] = test system: HCT116 human colon cancer cells; assay: SRB cytotoxicity test, HCT116; settings: SRB assay, cultured 3 days
Description: as §1, §2, §3, §4, §5

T1 sequence (Q8TEK3 whole entry): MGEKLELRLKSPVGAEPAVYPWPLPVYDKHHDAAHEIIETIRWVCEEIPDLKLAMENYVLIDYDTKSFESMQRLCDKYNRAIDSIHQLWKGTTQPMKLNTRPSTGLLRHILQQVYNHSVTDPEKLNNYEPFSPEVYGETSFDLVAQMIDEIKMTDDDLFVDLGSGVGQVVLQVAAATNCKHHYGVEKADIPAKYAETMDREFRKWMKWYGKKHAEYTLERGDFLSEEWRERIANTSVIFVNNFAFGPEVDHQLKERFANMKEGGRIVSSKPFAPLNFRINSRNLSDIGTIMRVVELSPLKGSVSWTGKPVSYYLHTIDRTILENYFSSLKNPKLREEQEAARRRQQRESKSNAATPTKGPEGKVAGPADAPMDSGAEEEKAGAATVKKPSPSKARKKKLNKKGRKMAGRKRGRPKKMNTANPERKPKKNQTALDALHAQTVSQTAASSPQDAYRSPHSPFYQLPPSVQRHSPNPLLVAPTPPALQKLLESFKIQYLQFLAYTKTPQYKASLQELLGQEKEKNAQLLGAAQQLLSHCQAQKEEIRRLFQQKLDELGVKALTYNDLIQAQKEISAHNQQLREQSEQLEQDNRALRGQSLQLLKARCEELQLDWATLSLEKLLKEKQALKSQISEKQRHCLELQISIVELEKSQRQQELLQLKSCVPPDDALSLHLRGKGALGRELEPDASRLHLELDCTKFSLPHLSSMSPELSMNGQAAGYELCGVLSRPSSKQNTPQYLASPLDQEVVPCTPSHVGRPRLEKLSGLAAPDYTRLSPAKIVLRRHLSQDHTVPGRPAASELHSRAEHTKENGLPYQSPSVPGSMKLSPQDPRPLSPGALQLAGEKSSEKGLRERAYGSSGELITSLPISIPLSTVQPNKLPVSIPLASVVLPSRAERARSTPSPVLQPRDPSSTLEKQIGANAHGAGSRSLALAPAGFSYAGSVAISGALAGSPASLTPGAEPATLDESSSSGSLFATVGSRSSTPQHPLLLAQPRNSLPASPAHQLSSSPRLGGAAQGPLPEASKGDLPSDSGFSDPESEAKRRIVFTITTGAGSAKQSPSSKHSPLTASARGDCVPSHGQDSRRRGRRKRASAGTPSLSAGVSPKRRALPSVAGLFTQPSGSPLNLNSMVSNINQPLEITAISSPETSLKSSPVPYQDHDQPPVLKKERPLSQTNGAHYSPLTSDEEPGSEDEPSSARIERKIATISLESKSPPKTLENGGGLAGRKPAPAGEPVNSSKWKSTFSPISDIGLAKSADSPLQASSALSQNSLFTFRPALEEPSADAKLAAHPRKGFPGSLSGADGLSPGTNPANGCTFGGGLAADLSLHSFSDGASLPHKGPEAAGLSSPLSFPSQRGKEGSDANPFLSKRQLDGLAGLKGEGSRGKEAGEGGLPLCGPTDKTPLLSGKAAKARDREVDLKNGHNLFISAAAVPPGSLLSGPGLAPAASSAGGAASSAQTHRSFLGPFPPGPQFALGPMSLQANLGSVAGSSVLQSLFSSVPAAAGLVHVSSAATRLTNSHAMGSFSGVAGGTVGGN

**Q.** How did the IC50 [1] turn out when `O=C(NCC[Se][Se]CCNC(=O)/C(Cc1ccc(O)c(Br)c1)=N/O)/C(Cc1ccc(O)c(Br)c1)=N/O` [Compound 1, (2E,2′E)-N,N′-(diselenediylbis(ethane-2,1-diyl))bis(3-(3-bromo-4-hydroxyphenyl)-2-(hydroxyimino)propanamide)] was run?
**A.** 30 nM

**Q.** What about the IC50 [2] of the same molecule?
**A.** 160 nM

**Q.** What about the IC50 [3] of the same molecule?
**A.** 210 nM

**Q.** And the IC50 [4]?
**A.** 20 nM

**Q.** What about the “inhibitory effect on H3K79 methylation” value (DOT1L) of the same molecule?
**A.** excellent

**Q.** With `O=C(NCC[Se][Se]CCNC(=O)/C(Cc1ccc(F)cc1)=N/O)/C(Cc1ccc(F)cc1)=N/O` [Compound 4, (2E,2′E)-N,N′-(diselenediylbis(ethane-2,1-diyl))bis(3-(4-fluorophenyl)-2-(hydroxyimino)propanamide)] as the molecule, how does the IC50 [1] read?
**A.** 100 nM

**Q.** What about the IC50 [5] of the same molecule?
**A.** 110 nM

**Q.** What about the IC50 [2] of the same molecule?
**A.** 130 nM

**Q.** What about the IC50 [3] of the same molecule?
**A.** 140 nM

**Q.** And the IC50 [4]?
**A.** 70 nM

**Q.** With `O=C(NCC[Se][Se]CCNC(=O)/C(Cc1ccc(Br)cc1)=N/O)/C(Cc1ccc(Br)cc1)=N/O` [Compound 8, (2E,2′E)-N,N′-(diselenediylbis(ethane-2,1-diyl))bis(3-(4-bromophenyl)-2-(hydroxyimino)propanamide)] as the molecule, how does the IC50 [1] read?
**A.** 310 nM

**Q.** And the IC50 [5]?
**A.** 170 nM

**Q.** And the IC50 [2]?
**A.** 390 nM

**Q.** And the IC50 [4]?
**A.** 150 nM

**Q.** Which results are given for `COc1cc([C@@H]2c3cc4c(cc3[C@@H](O[C@@H]3O[C@@H]5CO[C@@H](C)O[C@H]5[C@H](O)[C@H]3O)[C@H]3COC(=O)[C@H]23)OCO4)cc(OC)c1O` [Etoposide, reference compound]?
**A.** IC50 ([1]; A549, 72 h): 300 nM; IC50 ([5]; HCT-116, 72 h): 1200 nM; IC50 ([2]; MDA-MB-231, 72 h): 8700 nM; IC50 ([3]; SK-HEP1, 72 h): 400 nM; IC50 ([4]; SNU-638, 72 h): 200 nM

**Q.** `O=C(NCCSSCCNC(=O)/C(Cc1ccc(O)c(Br)c1)=N/O)/C(Cc1ccc(O)c(Br)c1)=N/O` [Psammaplin A] was tested. Which IC50 [1] did it give?
**A.** 1760 nM

**Q.** And the IC50 [5]?
**A.** 610 nM

**Q.** And the IC50 [2]?
**A.** 1310 nM

**Q.** What about the IC50 [3] of the same molecule?
**A.** 1290 nM

**Q.** And the IC50 [4]?
**A.** 560 nM

**Q.** What does the source list for “(2E,2′E)-N,N′-(diselenediylbis(ethane-2,1-diyl))bis(2-(hydroxyimino)-3-(4-nitrophenyl)propanamide) [Compound 11]”?
**A.** IC50 [1]: 90 nM; IC50 [5]: 90 nM; IC50 [2]: 90 nM; IC50 [3]: 170 nM; IC50 [4]: 60 nM; inhibitory effect on H3K79 methylation (DOT1L): excellent

**Q.** “(2E,2′E)-N,N′-(diselenediylbis(ethane-2,1-diyl))bis(2-(hydroxyimino)-3-(naphthalene-2-yl)propanamide) [Compound 3]” was tested. Which IC50 [1] did it give?
**A.** 380 nM

**Q.** And the IC50 [5]?
**A.** 120 nM

**Q.** And the IC50 [2]?
**A.** 190 nM

**Q.** And the IC50 [3]?
**A.** 170 nM

**Q.** And the IC50 [4]?
**A.** 270 nM

**Q.** How did the IC50 [1] turn out when “(2E,2′E)-N,N′-(diselenediylbis(ethane-2,1-diyl))bis(3,4-dichlorophenyl)-2-(hydroxyimino)propanamide) [Compound 7]” was run?
**A.** 280 nM

**Q.** What about the IC50 [5] of the same molecule?
**A.** 520 nM

**Q.** What about the IC50 [2] of the same molecule?
**A.** 250 nM

**Q.** And the IC50 [3]?
**A.** 320 nM

**Q.** And the IC50 [4]?
**A.** 180 nM

**Q.** What does the source list for “(2E,2′E)-N,N′-(diselenediylbis(ethane-2,1-diyl))bis(3-(3,4-difluorophenyl)-2-(hydroxyimino)propanamide) [Compound 5]”?
**A.** IC50 [1]: 330 nM; IC50 [5]: 180 nM; IC50 [2]: 420 nM; IC50 [3]: 270 nM; IC50 [4]: 50 nM

**Q.** Which IC50 [1] does the source give for “(2E,2′E)-N,N′-(diselenediylbis(ethane-2,1-diyl))bis(3-(3-chloro-4-hydroxyphenyl)-2-(hydroxyimino)propanamide) [Compound 13]” here?
**A.** 20 nM

**Q.** And the IC50 [2]?
**A.** 170 nM

**Q.** And the IC50 [3]?
**A.** 110 nM

**Q.** What about the IC50 [4] of the same molecule?
**A.** 10 nM

**Q.** “(2E,2′E)-N,N′-(diselenediylbis(ethane-2,1-diyl))bis(3-(3-fluoro-4-hydroxyphenyl)-2-(hydroxyimino)propanamide) [Compound 14]” was tested. Which IC50 [1] did it give?
**A.** 20 nM

**Q.** What about the IC50 [2] of the same molecule?
**A.** 190 nM

**Q.** What about the IC50 [3] of the same molecule?
**A.** 130 nM

**Q.** What about the IC50 [4] of the same molecule?
**A.** 20 nM

**Q.** Which results are given for “(2E,2′E)-N,N′-(diselenediylbis(ethane-2,1-diyl))bis(3-(4-benzyloxy)phenyl)-2-(hydroxyimino)propanamide) [Compound 10]”?
**A.** IC50 [1]: 140 nM; IC50 [5]: 100 nM; IC50 [2]: 140 nM; IC50 [3]: 280 nM; IC50 [4]: 410 nM; inhibitory effect on H3K79 methylation (DOT1L): excellent

**Q.** “(2E,2′E)-N,N′-(diselenediylbis(ethane-2,1-diyl))bis(3-(4-chlorophenyl)-2-(hydroxyimino)propanamide) [Compound 6]” was tested. Which IC50 [1] did it give?
**A.** 250 nM

**Q.** And the IC50 [5]?
**A.** 280 nM

**Q.** What about the IC50 [2] of the same molecule?
**A.** 330 nM

**Q.** What about the IC50 [3] of the same molecule?
**A.** 330 nM

**Q.** And the IC50 [4]?
**A.** 220 nM

**Q.** “(2E,2′E)-N,N′-(diselenediylbis(ethane-2,1-diyl))bis(3-(4-ethoxyphenyl)-2-(hydroxyimino)propanamide) [Compound 9]” was tested. Which IC50 [1] did it give?
**A.** 50 nM

**Q.** What about the IC50 [5] of the same molecule?
**A.** 70 nM

**Q.** And the IC50 [2]?
**A.** 200 nM

**Q.** And the IC50 [3]?
**A.** 180 nM

**Q.** And the IC50 [4]?
**A.** 30 nM

**Q.** What about the “inhibitory effect on H3K79 methylation” value (DOT1L) of the same molecule?
**A.** excellent

**Q.** Which IC50 [1] does the source give for “(2E,2′E)-N,N′-(diselenediylbis(ethane-2,1-diyl))bis(3-(4-tert-butyl)phenyl)-2-(hydroxyimino)propanamide) [Compound 12]” here?
**A.** 100 nM

**Q.** What about the IC50 [5] of the same molecule?
**A.** 130 nM

**Q.** What about the IC50 [2] of the same molecule?
**A.** 100 nM

**Q.** What about the IC50 [3] of the same molecule?
**A.** 190 nM

**Q.** What about the IC50 [4] of the same molecule?
**A.** 280 nM

**Q.** What about the “inhibitory effect on H3K79 methylation” value (DOT1L) of the same molecule?
**A.** excellent
